Literature values as cited in patent US20240041963A1, “A NUTRACEUTICALS FORMULATION WITH AN ENHANCED ORGANOLEPTIC PROPERTIES USED FOR SCALP AND HAIR CARE” (DiaBliss Consumer Products Pvt Ltd, priority 2020, published 2024).
Read-outs that look alike come from different tables or passages of the source.

Key:
[1] = system: Male Patients with Androgenetic Alopecia; settings: 30 men, 5 mg oral; for Hair Diameter: Day 0 58.5
[2] = system: Male Patients with Androgenetic Alopecia; settings: 30 men, 5 mg oral; for Hair Density in 1 sq cm area: Day 0 182.5
men with hair loss = settings: according to the American Academy of Dermatology

SMILES	Hair Diameter Increase vs Day 0 ([1]; Week 12 (Day 84)) [%]	Hair Diameter ([1]; Week 12 (Day 84)) [µm]	Hair Diameter Increase vs Day 0 ([1]; Week 24 (Day 168)) [%]	Hair Diameter ([1]; Week 24 (Day 168)) [µm]	Hair Density Increase vs Day 0 ([2]; Week 12 (Day 84)) [%]	Hair Density in 1 sq cm area ([2]; Week 12 (Day 84))	Hair Density Increase vs Day 0 ([2]; Week 24 (Day 168)) [%]	Hair Density in 1 sq cm area ([2]; Week 24 (Day 168))	men in whom it slows hair loss (men with hair loss)	men in whom it stimulates regrowth (men with hair loss)
Nc1cc(N2CCCCC2)nc(N)[n+]1[O-] [Oral Minoxidil, 2,4-diamino-6-piperidinopyrimidine 3-oxide]	10.6	64.7	15.2	67.4	14.2	208.5	19.2	217.6		
CC(C)(C)NC(=O)[C@H]1CC[C@H]2[C@@H]3CC[C@H]4NC(=O)C=C[C@]4(C)[C@H]3CC[C@]12C [Finasteride]									about 88%	about 66%
